Measurements reported in article PMC8466613, “Cocaine Detection by a Laser-Induced Immunofluorometric Biosensor” (Biosensors, 2021).

Test system: T1, monoclonal anti-benzoylecgonine/cocaine (BEC) antibody IP3G2
T1 construct: monoclonal antibody, clone IP3G2, mouse, subtype IgG1
Test: indirect competitive ELISA with chemiluminescence detection against BEC-BSA; also competitive immunofluorometric biosensor with Dy-654-labelled antibody
Type: binding, Mus musculus

COC(=O)[C@H]1[C@@H](OC(=O)c2ccccc2)C[C@@H]2CC[C@H]1N2C [cocaine]
IC50: ~0.75 nM
